# In patent US11447466B2, “Substituted indole compounds useful as inhibitors of TLR7/8/9” (BRISTOL-MYERS SQUIBB COMPANY, priority 2017, dated 2022):
# How the values were obtained:
# Type in all cases: cell-based
# human TLR7 = target: T1, human TLR7 (Homo sapiens, UniProt Q9NYK1); assay: TLR7 inhibition reporter assay (HEK-Blue SEAP reporter, gardiquimod stimulation); details: HEK-Blue cells overexpressing human TLR7, SEAP reporter, gardiquimod 7.5 μM, 22 hour incubation
# T1 construct: host or cells: HEK-Blue cells
# T1 sequence (Q9NYK1 27-1049): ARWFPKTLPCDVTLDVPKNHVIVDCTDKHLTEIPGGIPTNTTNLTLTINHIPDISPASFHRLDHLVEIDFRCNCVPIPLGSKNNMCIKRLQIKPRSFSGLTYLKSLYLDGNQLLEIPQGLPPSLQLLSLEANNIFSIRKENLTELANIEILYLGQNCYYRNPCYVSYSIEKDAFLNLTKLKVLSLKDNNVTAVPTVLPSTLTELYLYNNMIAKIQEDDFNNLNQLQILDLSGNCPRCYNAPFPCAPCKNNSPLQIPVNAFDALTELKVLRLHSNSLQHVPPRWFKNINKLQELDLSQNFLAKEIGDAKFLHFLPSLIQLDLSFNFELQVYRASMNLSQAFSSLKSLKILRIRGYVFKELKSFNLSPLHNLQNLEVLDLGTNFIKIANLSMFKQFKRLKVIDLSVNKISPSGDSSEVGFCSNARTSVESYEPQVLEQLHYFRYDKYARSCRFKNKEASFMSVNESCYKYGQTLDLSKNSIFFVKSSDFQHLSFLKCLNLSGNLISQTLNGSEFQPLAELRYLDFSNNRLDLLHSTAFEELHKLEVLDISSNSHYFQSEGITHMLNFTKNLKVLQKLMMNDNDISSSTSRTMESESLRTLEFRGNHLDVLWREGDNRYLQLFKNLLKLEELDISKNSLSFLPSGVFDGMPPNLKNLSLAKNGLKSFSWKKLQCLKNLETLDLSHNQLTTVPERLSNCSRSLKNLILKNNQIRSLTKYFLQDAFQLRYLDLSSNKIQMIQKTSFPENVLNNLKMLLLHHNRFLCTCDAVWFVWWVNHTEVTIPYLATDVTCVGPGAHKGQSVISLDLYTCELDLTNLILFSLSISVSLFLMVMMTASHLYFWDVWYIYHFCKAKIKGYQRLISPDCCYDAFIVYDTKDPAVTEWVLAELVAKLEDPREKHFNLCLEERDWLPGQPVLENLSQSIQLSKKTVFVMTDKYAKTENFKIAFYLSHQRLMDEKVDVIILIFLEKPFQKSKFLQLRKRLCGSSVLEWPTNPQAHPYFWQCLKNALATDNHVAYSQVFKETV
# Method: (§1) TLR7/8/9 Inhibition Reporter Assays
# (§2) HEK-Blue™-cells (Invivogen) overexpressing human TLR7, TLR8 or TLR9 receptors were used for screening inhibitors of these receptors using an inducible SEAP (secreted embryonic alkaline phosphatase) reporter gene under the control of the IFN-β minimal promoter fused to five NF-κB and AP-1-binding sites. Briefly, cells are seeded into Greiner 384 well plates (15000 cells per well for TLR7, 20,000 for TLR8 and 25,000 for TLR9) and then treated with test compounds in DMSO to yield a final dose response concentration range of 0.05 nM-50 μM. After a 30 minute compound pre-treatment at room temperature, the cells are then stimulated with a TLR7 ligand (gardiquimod at a final concentration of 7.5 μM), TLR8 ligand (R848 at a final concentration of 15.9 μM) or TLR9 ligand (ODN2006 at a final concentration of 5 nM) to activate NF-κB and AP-1 which induce the production of SEAP. After a 22 hour incubation at 37° C., 5% CO2, SEAP levels are determined with the addition of HEK-Blue™ Detection reagent (Invivogen), a cell culture medium that allows for detection of SEAP, according to manufacturer's specifications. The percent inhibition is determined as the % reduction in the HEK-Blue signal present in wells treated with agonist plus DMSO alone compared to wells treated with a known inhibitor.
# human TLR8 = target: T2, human TLR8 (Homo sapiens, UniProt Q9NR97); assay: TLR8 inhibition reporter assay (HEK-Blue SEAP reporter, R848 stimulation); details: HEK-Blue cells overexpressing human TLR8, SEAP reporter, R848 15.9 μM, 22 hour incubation
# T2 construct: host or cells: HEK-Blue cells
# T2 sequence (Q9NR97 27-1041): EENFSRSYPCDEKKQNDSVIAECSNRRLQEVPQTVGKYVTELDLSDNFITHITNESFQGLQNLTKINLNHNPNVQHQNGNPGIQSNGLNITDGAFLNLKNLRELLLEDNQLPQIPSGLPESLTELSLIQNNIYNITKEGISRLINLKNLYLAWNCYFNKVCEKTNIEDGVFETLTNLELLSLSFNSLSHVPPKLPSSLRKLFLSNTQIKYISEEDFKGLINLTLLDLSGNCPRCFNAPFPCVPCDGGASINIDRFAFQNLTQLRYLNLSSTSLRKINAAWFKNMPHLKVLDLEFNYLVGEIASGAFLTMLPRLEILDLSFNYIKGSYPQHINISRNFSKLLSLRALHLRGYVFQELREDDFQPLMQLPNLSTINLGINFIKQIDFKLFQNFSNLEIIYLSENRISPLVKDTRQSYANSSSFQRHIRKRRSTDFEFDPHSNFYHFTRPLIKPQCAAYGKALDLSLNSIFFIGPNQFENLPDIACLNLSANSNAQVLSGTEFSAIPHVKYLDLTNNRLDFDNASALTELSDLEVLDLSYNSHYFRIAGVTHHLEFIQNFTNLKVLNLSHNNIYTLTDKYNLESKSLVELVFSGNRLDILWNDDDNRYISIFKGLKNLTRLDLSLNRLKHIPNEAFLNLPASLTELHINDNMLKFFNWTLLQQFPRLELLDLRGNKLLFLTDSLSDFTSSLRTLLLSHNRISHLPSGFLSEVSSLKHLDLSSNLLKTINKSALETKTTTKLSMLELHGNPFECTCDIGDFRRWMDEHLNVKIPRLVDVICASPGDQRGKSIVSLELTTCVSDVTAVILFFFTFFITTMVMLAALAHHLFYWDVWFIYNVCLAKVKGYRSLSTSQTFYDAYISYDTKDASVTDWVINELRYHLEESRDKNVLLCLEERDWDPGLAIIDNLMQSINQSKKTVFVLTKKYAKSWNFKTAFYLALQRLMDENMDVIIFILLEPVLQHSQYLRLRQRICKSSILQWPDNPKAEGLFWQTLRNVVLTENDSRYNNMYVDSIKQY
# Method: as §1, §2
# human TLR9 = target: T3, human TLR9 (Homo sapiens, UniProt Q9NR96); assay: TLR9 inhibition reporter assay (HEK-Blue SEAP reporter, ODN2006 stimulation); details: HEK-Blue cells overexpressing human TLR9, SEAP reporter, ODN2006 5 nM, 22 hour incubation
# T3 construct: host or cells: HEK-Blue cells
# T3 sequence (Q9NR96 26-1032): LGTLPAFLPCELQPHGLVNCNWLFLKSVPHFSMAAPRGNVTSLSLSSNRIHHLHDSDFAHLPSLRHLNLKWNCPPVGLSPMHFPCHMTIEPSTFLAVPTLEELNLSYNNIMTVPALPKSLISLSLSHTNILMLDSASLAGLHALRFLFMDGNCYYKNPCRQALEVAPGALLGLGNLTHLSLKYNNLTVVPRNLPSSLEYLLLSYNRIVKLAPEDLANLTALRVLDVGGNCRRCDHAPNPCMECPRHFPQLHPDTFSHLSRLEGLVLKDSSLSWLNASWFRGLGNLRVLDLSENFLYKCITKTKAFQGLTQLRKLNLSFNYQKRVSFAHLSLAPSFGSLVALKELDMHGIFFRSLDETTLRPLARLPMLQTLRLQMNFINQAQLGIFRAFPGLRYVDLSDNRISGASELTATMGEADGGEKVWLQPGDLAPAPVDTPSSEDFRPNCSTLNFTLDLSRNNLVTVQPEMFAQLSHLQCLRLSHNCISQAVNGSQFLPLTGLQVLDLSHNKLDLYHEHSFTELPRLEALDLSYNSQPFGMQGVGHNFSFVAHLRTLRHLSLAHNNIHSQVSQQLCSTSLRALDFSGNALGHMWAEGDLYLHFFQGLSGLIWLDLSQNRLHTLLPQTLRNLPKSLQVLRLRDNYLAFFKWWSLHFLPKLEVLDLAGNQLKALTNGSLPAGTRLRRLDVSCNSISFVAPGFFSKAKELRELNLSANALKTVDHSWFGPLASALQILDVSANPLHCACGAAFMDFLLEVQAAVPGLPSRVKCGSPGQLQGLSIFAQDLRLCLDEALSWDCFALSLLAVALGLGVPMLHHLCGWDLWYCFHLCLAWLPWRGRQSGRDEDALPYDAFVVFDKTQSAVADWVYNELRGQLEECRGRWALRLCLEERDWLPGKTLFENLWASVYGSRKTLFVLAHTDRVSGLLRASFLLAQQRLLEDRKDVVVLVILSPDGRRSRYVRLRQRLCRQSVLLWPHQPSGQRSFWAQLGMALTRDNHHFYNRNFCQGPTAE
# Method: as §1, §2
IC50 (human TLR7) [nM],IC50 (human TLR8) [nM],IC50 (human TLR9) [nM],SMILES
165,18.5,–,"CCn1nc(-c2[nH]c3ccc(C4CCNCC4)cc3c2C(C)C)c(C)c(C)c1=O [Example 27, 2-ethyl-6-(3-isopropyl-5-(piperidin-4-yl)-1H-indol-2-yl)-4,5-dimethylpyridazin-3(2H)-one]"
11.4,10.3,–,"CC(C)c1c(-c2cc(-c3ccccc3)c(=O)n(C)c2)[nH]c2ccc(C3CCNCC3)cc12 [Example 53, 5-(3-isopropyl-5-(piperidin-4-yl)-1H-indol-2-yl)-1-methyl-3-phenylpyridin-2(1H)-one]"
–,–,≥ 50000,"CC(C)c1c(-c2cc(CCC3CC3)c(=O)n(C)c2)[nH]c2ccc(C3CCNCC3)cc12 [Example 62, 3-(2-cyclopropylethyl)-5-(3-isopropyl-5-(piperidin-4-yl)-1H-indol-2-yl)-1-methylpyridin-2(1H)-one]"
67.5,53.2,–,"Cc1cc(-c2[nH]c3ccc(C4CCN(CCC(C(F)(F)F)C(F)(F)F)CC4)cc3c2C(C)C)cn(C)c1=O [Example 88, 5-(3-isopropyl-5-(1-(4,4,4-trifluoro-3-(trifluoromethyl)butyl)piperidin-4-yl)-1H-indol-2-yl)-1,3-dimethylpyridin-2(1H)-one]"
57.7,97,–,"Cc1cc(-c2[nH]c3ccc(C4CCN(C5CCC(C(C)C)CC5)CC4)cc3c2C(C)C)cn(C)c1=O (centres unmarked) [Example 233, 5-(3-isopropyl-5-(1-(4-isopropylcyclohexyl)piperidin-4-yl)-1H-indol-2-yl)-1,3-dimethylpyridin-2(1H)-one]"
40.2,52.3,–,"Cc1cc(-c2[nH]c3ccc(C4CCN(C5CCC(C(C)C)CC5)CC4)cc3c2C(C)C)cn(C)c1=O (centres unmarked) [Example 234, 5-(3-isopropyl-5-(1-(4-isopropylcyclohexyl)piperidin-4-yl)-1H-indol-2-yl)-1,3-dimethylpyridin-2(1H)-one]"
14.1,1.1,–,"CCCN1CCC(c2ccc3[nH]c(-c4cc(-c5cncnc5)c(=O)n(C)c4)c(C(C)C)c3c2)CC1 [Example 249, 5-(3-isopropyl-5-(1-propylpiperidin-4-yl)-1H-indol-2-yl)-1-methyl-3-(pyrimidin-5-yl)pyridin-2(1H)-one]"
7.9,53,–,"Cc1cc(-c2[nH]c3ccc(C4CCN(C(=O)C5(N)CC5)CC4)cc3c2C(C)C)cn(C)c1=O [Example 272, 5-(5-(1-(1-aminocyclopropanecarbonyl)piperidin-4-yl)-3-isopropyl-1H-indol-2-yl)-1,3-dimethylpyridin-2(1H)-one]"
17.4,61.7,–,"Cc1cc(-c2[nH]c3ccc(C4CCN(C(=O)[C@H]5C[C@H](O)CN5)CC4)cc3c2C(C)C)cn(C)c1=O [Example 288, 5-(5-(1-((2R,4S)-4-hydroxypyrrolidine-2-carbonyl)piperidin-4-yl)-3-isopropyl-1H-indol-2-yl)-1,3-dimethylpyridin-2(1H)-one]"
8.3,–,–,"Cc1cc(-c2[nH]c3ccc(C4CCN(C(=O)[C@@H]5C[C@@H](O)CN5)CC4)cc3c2C(C)C)cn(C)c1=O [Example 290, 5-(5-(1-((2S,4R)-4-hydroxypyrrolidine-2-carbonyl)piperidin-4-yl)-3-isopropyl-1H-indol-2-yl)-1,3-dimethylpyridin-2(1H)-one]"
7.2,40.7,–,"Cc1cc(-c2[nH]c3ccc(C4CCN(C(=O)[C@H]5C[C@H](O)CN5)CC4)cc3c2C(C)C)cn(C)c1=O [Example 292, 5-(5-(1-((2R,4S)-4-hydroxypyrrolidine-2-carbonyl)piperidin-4-yl)-3-isopropyl-1H-indol-2-yl)-1,3-dimethylpyridin-2(1H)-one]"
21.6,–,–,"Cc1cc(-c2[nH]c3ccc(C4CCN(C(=O)[C@@H]5C[C@@H](O)CN5)CC4)cc3c2C(C)C)cn(C)c1=O [Example 293, 5-(5-(1-((2S,4R)-4-hydroxypyrrolidine-2-carbonyl)piperidin-4-yl)-3-isopropyl-1H-indol-2-yl)-1,3-dimethylpyridin-2(1H)-one]"
15.8,32.4,–,"Cc1cc(-c2[nH]c3ccc(C4CCN(CC(C)(C)O)CC4)cc3c2C(C)C)cn(Cc2ccccc2)c1=O [Example 329, 1-benzyl-5-(5-(1-(2-hydroxy-2-methylpropyl)piperidin-4-yl)-3-isopropyl-1H-indol-2-yl)-3-methylpyridin-2(1H)-one]"
